Assay results from the NIST ThermoML archive (doi:10.1016/j.jct.2017.07.016).

Test: xn = mol fraction of the nth substance listed
Conditions: 96.7 kPa, Liquid; for viscosity: Capillary tube (Ostwald / Ubbelohde) method; for mass density: Vibrating tube method

CCCCCCn1cc[n+](C)c1.[Cl-] [1-hexyl-3-methylimidazolium chloride] + C[S+](C)[O-]
Conditions	mass density [kg/m3]	viscosity [mPa·s]
303.15 K, x1 = 0.141	1078.5	6.523
303.15 K, x1 = 0.278	1068.64	23.07
303.15 K, x1 = 0.366	1063.06	54.37
303.15 K, x1 = 0.472	1057.13	134.28
303.15 K, x1 = 0.606	1050.34	343.91
303.15 K, x1 = 0.773	1043.22	806.64
303.15 K, x1 = 0.878	1039.66	2111.1
303.15 K, x1 = 1	1036.07	5718.5
308.15 K, x1 = 0.141	1074.26	5.691
308.15 K, x1 = 0.278	1064.88	18.67
308.15 K, x1 = 0.366	1059.5	41.74
308.15 K, x1 = 0.472	1053.74	100.12
308.15 K, x1 = 0.606	1047.15	242.91
308.15 K, x1 = 0.773	1040.19	554.65
308.15 K, x1 = 0.878	1036.71	1348.9
308.15 K, x1 = 1	1033.22	3430.8
313.15 K, x1 = 0.141	1070.08	4.951
313.15 K, x1 = 0.278	1061.15	15.46
313.15 K, x1 = 0.366	1055.94	33.33
313.15 K, x1 = 0.472	1050.36	76.29
313.15 K, x1 = 0.606	1043.96	176.38
313.15 K, x1 = 0.773	1037.17	384.99
313.15 K, x1 = 0.878	1033.77	895.04
313.15 K, x1 = 1	1030.38	2146.1
318.15 K, x1 = 0.141	1065.87	4.385
318.15 K, x1 = 0.278	1057.41	12.95
318.15 K, x1 = 0.366	1052.4	26.72
318.15 K, x1 = 0.472	1046.99	58.57
318.15 K, x1 = 0.606	1040.76	130.64
318.15 K, x1 = 0.773	1034.12	274.48
318.15 K, x1 = 0.878	1030.8	607.51
318.15 K, x1 = 1	1027.56	1390.4
323.15 K, x1 = 0.141	1061.67	3.892
323.15 K, x1 = 0.278	1053.68	10.99
323.15 K, x1 = 0.366	1048.87	21.9
323.15 K, x1 = 0.472	1043.65	46.32
323.15 K, x1 = 0.606	1037.58	98.7
323.15 K, x1 = 0.773	1031.12	201.06
323.15 K, x1 = 0.878	1027.89	425.84
323.15 K, x1 = 1	1024.75	928.1
328.15 K, x1 = 0.141	1057.48	3.493
328.15 K, x1 = 0.278	1049.95	9.439
328.15 K, x1 = 0.366	1045.35	18.22
328.15 K, x1 = 0.472	1040.31	37.12
328.15 K, x1 = 0.606	1034.41	76.27
328.15 K, x1 = 0.773	1028.15	150.51
328.15 K, x1 = 0.878	1025.02	306.13
328.15 K, x1 = 1	1021.92	638.79
333.15 K, x1 = 0.141	1053.31	3.154
333.15 K, x1 = 0.278	1046.23	8.18
333.15 K, x1 = 0.366	1041.84	15.34
333.15 K, x1 = 0.472	1036.99	30.3
333.15 K, x1 = 0.606	1031.26	60.05
333.15 K, x1 = 0.773	1025.19	114.9
333.15 K, x1 = 0.878	1022.16	227.29
333.15 K, x1 = 1	1019.13	453.59
338.15 K, x1 = 0.141	1049.14	2.85
338.15 K, x1 = 0.278	1042.51	7.175
338.15 K, x1 = 0.366	1038.35	13.14
338.15 K, x1 = 0.472	1033.67	25.52
338.15 K, x1 = 0.606	1028.12	48.07
338.15 K, x1 = 0.773	1022.24	89.02
338.15 K, x1 = 0.878	1019.29	169.96
338.15 K, x1 = 1	1016.38	327.52
343.15 K, x1 = 0.141	1045.01	2.594
343.15 K, x1 = 0.278	1038.81	6.291
343.15 K, x1 = 0.366	1034.87	11.28
343.15 K, x1 = 0.472	1030.39	20.88
343.15 K, x1 = 0.606	1025	39.06
343.15 K, x1 = 0.773	1019.29	70.28
343.15 K, x1 = 0.878	1016.44	129.41
343.15 K, x1 = 1	1013.65	243.04
348.15 K, x1 = 0.141	1040.88	2.378
348.15 K, x1 = 0.278	1035.11	5.597
348.15 K, x1 = 0.366	1031.39	9.738
348.15 K, x1 = 0.472	1027.11	17.65
348.15 K, x1 = 0.606	1021.88	32.05
348.15 K, x1 = 0.773	1016.35	56.52
348.15 K, x1 = 0.878	1013.59	100.3
348.15 K, x1 = 1	1010.91	183.45
353.15 K, x1 = 0.141	1036.68	2.184
353.15 K, x1 = 0.278	1031.43	4.998
353.15 K, x1 = 0.366	1027.93	8.538
353.15 K, x1 = 0.472	1023.84	15.07
353.15 K, x1 = 0.606	1018.78	26.7
353.15 K, x1 = 0.773	1013.43	45.71
353.15 K, x1 = 0.878	1010.75	81.75
353.15 K, x1 = 1	1008.18	140.06
